The record followed here is PMC4285139, “Target discovery of acivicin in cancer cells elucidates its mechanism of growth inhibition” (Chemical Science, 2014).

Experiment [1] addresses T1, ALDH4A1 (Homo sapiens, UniProt P30038).
T1 sequence (P30038 25-563): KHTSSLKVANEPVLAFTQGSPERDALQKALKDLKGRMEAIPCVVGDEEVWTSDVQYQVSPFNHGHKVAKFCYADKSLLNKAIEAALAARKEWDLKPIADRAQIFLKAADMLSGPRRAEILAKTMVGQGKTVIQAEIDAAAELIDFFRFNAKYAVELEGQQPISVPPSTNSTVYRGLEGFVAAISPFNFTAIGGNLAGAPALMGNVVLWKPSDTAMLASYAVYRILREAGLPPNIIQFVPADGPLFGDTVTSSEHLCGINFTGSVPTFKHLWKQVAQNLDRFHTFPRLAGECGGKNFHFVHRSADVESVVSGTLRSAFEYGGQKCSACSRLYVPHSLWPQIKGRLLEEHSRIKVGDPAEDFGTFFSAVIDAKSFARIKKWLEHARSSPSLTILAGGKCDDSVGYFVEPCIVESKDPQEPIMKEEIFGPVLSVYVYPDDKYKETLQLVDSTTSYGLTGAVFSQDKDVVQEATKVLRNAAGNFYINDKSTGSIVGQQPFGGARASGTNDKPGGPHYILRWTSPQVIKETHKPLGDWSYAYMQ
Nature of the experiment: enzyme inhibition assay with purified recombinant enzyme ([…] min pre-incubation); also ABPP labelling, lost in the Cys348Ala mutant. It counts as biochemical.

The next experiment addresses T2, ALDH1A1 (Homo sapiens, UniProt P00352).
T2 sequence (P00352 2-501): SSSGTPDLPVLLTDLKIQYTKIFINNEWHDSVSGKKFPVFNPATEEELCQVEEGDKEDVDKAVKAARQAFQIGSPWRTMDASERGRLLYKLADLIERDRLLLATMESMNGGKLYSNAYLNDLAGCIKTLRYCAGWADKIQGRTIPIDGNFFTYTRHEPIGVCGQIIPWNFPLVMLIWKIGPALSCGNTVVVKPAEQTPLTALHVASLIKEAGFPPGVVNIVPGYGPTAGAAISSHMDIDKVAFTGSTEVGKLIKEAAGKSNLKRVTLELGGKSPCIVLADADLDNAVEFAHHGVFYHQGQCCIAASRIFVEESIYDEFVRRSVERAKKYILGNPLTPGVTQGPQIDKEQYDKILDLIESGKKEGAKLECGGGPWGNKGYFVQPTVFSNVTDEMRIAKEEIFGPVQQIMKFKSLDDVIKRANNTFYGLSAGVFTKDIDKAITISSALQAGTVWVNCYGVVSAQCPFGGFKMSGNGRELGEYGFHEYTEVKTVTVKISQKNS
Briefly: enzyme inhibition assay with purified recombinant enzyme ([…] min pre-incubation). The experiment is classed as biochemical.

The target in experiment [2] is T1, ALDH4A1. Nature of the experiment: enzyme inhibition assay with purified recombinant enzyme ([…] min pre-incubation); also competitive ABPP labelling in HepG2 lysate and cells. The experiment is classed as biochemical.
Experiment [3] deals with T1, ALDH4A1. Nature of the experiment: pre-incubation of native enzyme blocks probe labelling (competitive ABPP). The experiment is classed as cell-based.

Take `C#CCCCC(=O)N[C@H](C(=O)O)[C@@H]1CC(Cl)=NO1` [ACV1]: on ALDH4A1 [1], the IC50 (usually the concentration that gives 50% inhibition) is 0.7 µM. Regarding `C#CCNC(=O)[C@@H](N)[C@@H]1CC(Cl)=NO1` [ACV2], the IC50 on ALDH1A1 amounted to 55 µM. As for `N[C@H](C(=O)O)[C@@H]1CC(Cl)=NO1` [ACV, Acivicin], the IC50 on ALDH4A1 [2] stood at 5.4 µM. Regarding `CCN(CC)C(=S)SSC(=S)N(CC)CC` [disulfiram], at ALDH4A1 [3], the “pre-incubation of native enzyme blocks probe labelling (competitive ABPP)” value is given as “pre-incubation of the native enzyme with the ALDH inhibitor disulfiram resulted in a lack of labeling”. Consider `C#CCCCC(=O)OC[C@H]1CC(Br)=NO1` [ACVL1], for which the IC50 at ALDH1A1 was 0.3 µM.
